Values of other authors, collected in patent publication US7930948B2, “Device for leaching extraction and assessment” (priority 2007, dated 2011).

Assays:
[1] = octanol/water partition coefficient; after Mackay et al. 1992
[2] = after Mackay et al. 1992

Molecule | log(Kow) [1] | Aqueous Solubility [2] [µg/mL]
C1=Cc2cccc3cccc1c23 [Acenaphthylene] | 4.07 | 
c1ccc2cc3ccccc3cc2c1 [Anthracene] | 4.54 | 0.073
c1ccc2cc3c(ccc4ccccc43)cc2c1 [Benzo(a)anthracene] | 5.91 | 
c1ccc2c(c1)cc1ccc3cccc4ccc2c1c34 [Benzo(a)pyren] | 6.50 | 
c1ccc2c(c1)-c1cccc3c1c-2cc1ccccc13 [Benzo(b)fluoranthene] | 6.50 | 
c1cc2ccc3ccc4ccc5cccc6c(c1)c2c3c4c56 [Benzo(g,h,i)perylene] | 6.85 | 0.00026
c1ccc2cc3c(cc2c1)-c1cccc2cccc-3c12 [Benzo(k)fluoranthene] | 6.84 | 0.00081
c1ccc2c(c1)ccc1cc3c(ccc4ccccc43)cc12 [Dibenzo(a,h)anthracene] | 7.19 | 0.0005
c1ccc2c(c1)-c1cccc3cccc-2c13 [Fluoranthene] | 5.22 | 
c1ccc2c(c1)Cc1ccccc1-2 [Fluorene] | 4.18 | 
c1ccc2c(c1)-c1ccc3ccc4cccc5cc-2c1c3c45 [Indeno(1,2,3-cd)pyrene] | 7.66 | 
c1ccc2ccccc2c1 [Naphthalene] |  | 34.4
c1ccc2c(c1)ccc1ccccc12 [Phenanthrene] |  | 1.29
Acenaphthene | 4.03 | 
